The results in this text go back to patent publication US7361685B2, “Compounds for use in the treatment of skin conditions” (Oregon Health & Science University, priority 2001, dated 2008).

For one assay, the system named is melan-a cells. As to the kind of experiment: Dendricity of melan-a cells by observation under microscope. The format is cell-based, mouse. On the set-up: key to Dendricity of RV-A08: +++: highly dendiitic; ++: moderately dendritic; +: weakly dendritic; key to Dentricity of RV-A07 / Dendricity of RV-A09 / Dendricity of RV-A10 / Dendricity: +++: highly dendritic; ++: moderately dendritic; +: weakly dendritic; −: no effect. The text has this:
Effect on dendricity of melan-a cells by the test compounds was by observation under microscope. Dendricity is relevant to vitiligo since normal skin melanocytes have dendrites, but in vitiligo the melanocytes seem to lose these before they disappear from the patches.

A further assay deals with mouse melan-a cell line. Description: Microplate culture and sulforhodamine B (SRB) proliferation assay, melan-a melanocytes. It is filed as cell-based. Here is the method: A supplemental growth medium of 10% foetal bovine serum (FBS) was added to the […] microtiter plates. The plates were incubated at 37° C. in a 10% CO2, 90% air humidified atmosphere for 4 days. At the end of the incubation, an SRB assay was performed. Briefly, cells attached to the bottom of the plate were fixed by addition of cold trichloroacetic acid (TCA, 4° C., Aldrich, Dorset, UK) on the top of the growth medium (final TCA 20% w/v). The plate was placed at 4° C. for 1 hour before being gently washed five times with tap water. It was allowed to dry in air, or aided with a hair dryer to speed up the drying process, then 50 μl of […] SRB dissolved in 1% acetic acid in water was added to each well for 30 min. At the end of the staining period, unbound SRB was removed by washing 4 times with 1% acetic acid. The plate was air dried again, and 150 μl of 10 mM aqueous Tris base (Sigma-Aldrich Co. Ltd, Irvine, UK) was added into each well to solubilize the cell-bound dye. […] A control assay was carried out on cells incubated without test compound. There were 2 or 3 series of experiments, each of which consisted of six replicate experiments.
Various compounds of formula (1) were synthesised and tested for melanocyte (mouse melan-a) proliferant activity in-vitro. Cells were incubated with the test compound for 4 days, as described above.
Percentage cell growth was obtained with a given compound calculated as (optical density in the presence of the compound/control optical density)×100.
Melan-a cell proliferant activity for tested compounds was compared with that obtained with piperine. […] All figures are given with Standard Error of the Mean.
For orientation: Sulforhodamine B stains cellular protein and so reports cell mass.

Values joined by “and” are separate entries in the source; they are usually repeats but may differ in a detail not shown here. Identical values can stand only once.

Consider `CNC(=O)/C=C/C=C/c1ccc2c(c1)OCO2` [RV-A07, 5-E,E-piperinoylmethylamine], for which, in the assay on melan-a cells (10 μM), the “Dentricity of RV-A07” value is on record as “++”. Besides, the Percentage cell growth worked out at 140 ± 12 % in the assay with mouse melan-a cell line (1 μM, 4 days, ± SEM); 170 ± 24 % with mouse melan-a cell line (10 μM, 4 days, ± SEM); 71 ± 5% in the assay with mouse melan-a cell line (50 μM, 4 days, ± SEM); 46 ± 2% with mouse melan-a cell line (100 μM, 4 days, ± SEM). The Stimulant activity entry with mouse melan-a cell line (10 μM) is recorded as “Positive”.

For the compound `O=C(CCCCc1ccc2c(c1)OCO2)NC1CCCCC1` [RV-C04, 5-(3,4-methylenedioxyphenyl)-pentanoic acid cyclohexylamide], the Dendricity entry in the assay with melan-a cells (1 μM (tables RV-C04, RV-C05)) is “+”; in the assay on melan-a cells (10 μM (tables RV-C04, RV-C05)), “+++”; in the assay with melan-a cells (50 μM (tables RV-C04, RV-C05)), “+++”; in the assay on melan-a cells (100 μM (tables RV-C04, RV-C05)), “+++”. The Percentage cell growth with mouse melan-a cell line (1 μM, 4 days, ± SEM) is 129 ± 6 %; with mouse melan-a cell line (10 μM, 4 days, ± SEM) it was 192 ± 6 %; with mouse melan-a cell line (50 μM, 4 days, ± SEM) it was 192 ± 10 %; in the assay on mouse melan-a cell line (100 μM, 4 days, ± SEM), 191 ± 12 %.

Consider `O=C(/C=C/C=C/c1ccc2c(c1)OCO2)N1CCOCC1` [RV-A02, 5-E,E-piperinoyl morpholine], for which the Percentage cell growth with mouse melan-a cell line (1 μM, 4 days, ± SEM) is recorded as 125 ± 10%; with mouse melan-a cell line (10 μM, 4 days, ± SEM), 167 ± 17 %; in the assay on mouse melan-a cell line (25 μM, 4 days, ± SEM) it was 171 ± 8 %; with mouse melan-a cell line (50 μM, 4 days, ± SEM), 168 ± 12**□ %. The Stimulant activity entry in the assay on mouse melan-a cell line (10 μM) is “Positive”. Also, the “Percentage cell growth (Repeated experiments) Test cpd.” value in the assay on mouse melan-a cell line (10 μM test compound, 4 days, OD vs control x100, ± SEM) is 156 ± 58% and 187 ± 40% and 153 ± 19%.

Take `O=C(/C=C/C=C/c1ccc2c(c1)OCO2)N1CCCCC1` [Piperine, reference compound]: the Percentage cell growth was 147 ± 11**♦ % and 211 ± 16**♦ % and 216 ± 14**♦ % and 221 ± 17**♦ % and 236 ± 30 % and 191 ± 12**♦ % and 161 ± 13 % in the assay on mouse melan-a cell line (1 μM, 4 days, ± SEM); 192 ± 13**♦ % and 216 ± 33 % and 236 ± 17 % and 263 ± 16 % and 302 ± 17 % and 216 ± 18 % and 192 ± 2**♦ % in the assay on mouse melan-a cell line (10 μM, 4 days, ± SEM); 167 ± 19 % in the assay with mouse melan-a cell line (25 μM, 4 days, ± SEM). Also, the “Percentage cell growth (Repeated experiments) Piperine” value in the assay with mouse melan-a cell line (10 μM piperine run alongside the test compound, 4 days, ± SEM) was 236 ± 17% and 263 + 16** % and 302 ± 17 % and 210 ± 65% and 170 ± 22% and 155 ± 19% and 216 ± 33 %.

As for `CCNC(=O)/C=C/C=C/c1ccc2c(c1)OCO2` [RV-A08], in the assay on melan-a cells (10 μM), the “Dendricity of RV-A08” value is “+++”. The Percentage cell growth in the assay with mouse melan-a cell line (1 μM, 4 days, ± SEM) was 139 ± 27 %; in the assay on mouse melan-a cell line (10 μM, 4 days, ± SEM), 200 ± 14 %; with mouse melan-a cell line (50 μM, 4 days, ± SEM), 81 ± 12%; in the assay with mouse melan-a cell line (100 μM, 4 days, ± SEM), 62 ± 13%. Moreover, in the assay with mouse melan-a cell line (10 μM), the Stimulant activity entry is “Positive”.

As to “7-(3,4-methylenedioxy phenyl)-heptanoic acid piperidineamide [RV-C05]”, the Dendricity result in the assay on melan-a cells (1 μM (tables RV-C04, RV-C05)) was “+”; in the assay with melan-a cells (10 μM (tables RV-C04, RV-C05)), “++”; with melan-a cells (50 μM (tables RV-C04, RV-C05)) it was “++”; in the assay with melan-a cells (100 μM (tables RV-C04, RV-C05)), “+”. The Percentage cell growth is 118 ± 1% in the assay with mouse melan-a cell line (1 μM, 4 days, ± SEM); 160 ± 5**♦ % with mouse melan-a cell line (10 μM, 4 days, ± SEM); 158 ± 19 % with mouse melan-a cell line (50 μM, 4 days, ± SEM); 113 ± 15% in the assay with mouse melan-a cell line (100 μM, 4 days, ± SEM).

For `O=C(/C=C/C=C/c1ccc2c(c1)OCO2)NC1CCCCC1` [RV-A10, 5-E,E-piperinoyl cyclohexylamine], the “Dendricity of RV-A10” value is “+++” in the assay with melan-a cells (10 μM) and “++” in the assay on melan-a cells (50 μM). In addition, the Percentage cell growth in the assay with mouse melan-a cell line (1 μM, 4 days, ± SEM) is recorded as 301 ± 20**□ %; in the assay on mouse melan-a cell line (10 μM, 4 days, ± SEM) it was 308 ± 29 %; with mouse melan-a cell line (50 μM, 4 days, ± SEM) it was 155 ± 22**□ %; in the assay with mouse melan-a cell line (100 μM, 4 days, ± SEM), 100 ± 13%. Also, in the assay with mouse melan-a cell line (10 μM), the Stimulant activity entry was “Positive”.

As to `CC(C)NC(=O)/C=C/C=C/c1ccc2c(c1)OCO2` [RV-A09, 5-E,E-piperinoylisopropylamine], in the assay with melan-a cells (10 μM), the “Dendricity of RV-A09” value is “+++”. For the same compound, the Percentage cell growth came to 187 ± 15 % in the assay with mouse melan-a cell line (1 μM, 4 days, ± SEM); 224 ± 19 % in the assay with mouse melan-a cell line (10 μM, 4 days, ± SEM); 85 ± 5% with mouse melan-a cell line (50 μM, 4 days, ± SEM); 42 ± 6% with mouse melan-a cell line (100 μM, 4 days, ± SEM). In addition, the Stimulant activity entry in the assay with mouse melan-a cell line (10 μM) was “Positive”.
